The values below are quoted from earlier work in patent US20240148714A1, “Triple Negative Breast Cancer Treatment Method” (Exelixis, Inc., priority 2016, published 2024).

The subject of the series is mTNBC. As to conditions: bevacizumab and onartuzumab combined, with paclitaxel; mTNBC patients without previous paclitaxel for metastatic disease; cited from earlier work.

Take onartuzumab: the clinical benefit result is reported as “no clinical benefit”.
Turning to bevacizumab, the clinical benefit entry is “no clinical benefit”.
